Laboratory results reported in US20110039762A1, “TARGETED ANTIMICROBIAL MOIETIES” (C3 JIAN, INC., priority 2009, published 2011).
“Also recorded” adds a separate entry of the source.

Legend:
B. subtilis = assay: Kill or inhibit growth/proliferation; morphology, biofilm and growth disruption (Tables 5, 6); type: cell-based, Bacillus subtilis; design: key: A: Peptide aggregates; B: Less hyphal formation; Clumps; Diffuse clumps and small polyps; F: Diffuse growth; H: Thin; I: Growth inhibition; Microcolony formation; Rippled; Small polyps; Thick; W: Halo formation on top, microlonies on bottom; note: test concentration or dose not given here
S. epidermidis = assay: as above; type: cell-based, Staphylococcus epidermidis; design: key: A: Peptide aggregates; B: Less hyphal formation; Clumps; Diffuse clumps and small polyps; F: Diffuse growth; H: Thin; I: Growth inhibition; Microcolony formation; Rippled; Small polyps; Thick; W: Halo formation on top, microlonies on bottom
S. pneumoniae = assay: as above; type: cell-based, Streptococcus pneumoniae; design: key: A: Peptide aggregates; B: Less hyphal formation; Clumps; Diffuse clumps and small polyps; F: Diffuse growth; H: Thin; I: Growth inhibition; Microcolony formation; Rippled; Small polyps; Thick; W: Halo formation on top, microlonies on bottom
C. jejuni = assay: as above; type: cell-based, Campylobacter jejuni; design: key: A: Peptide aggregates; B: Less hyphal formation; Clumps; Diffuse clumps and small polyps; F: Diffuse growth; H: Thin; I: Growth inhibition; Microcolony formation; Rippled; Small polyps; Thick; W: Halo formation on top, microlonies on bottom
[1] = system: microorganisms (e.g., bacteria, yeasts, fungi); assay: Targeting peptide binding to target microorganisms (Table 3); settings: preferably 1x PBS; for Target(s) (microorganisms bound by the targeting peptide): peptide binding in aqueous buffers varied by peptide solubility
microorganisms = assay: Peptides having multiple activities (targeting/binding, antimicrobial, growth or phenotype altering)
Text: In certain embodiments, peptides described herein can have multiple activities. Thus for example, a peptide can have both binding/targeting activity and antimicrobial activity. Such peptides can be used, e.g., in a chimeric construct, for any or all of these properties. Thus, for example, a peptide designated “B” in Table 8 can be used as a targeting peptide. If it is also designated G or M it can also be used for antimicrobial activity.

C. jeikeium = assay: Kill or inhibit growth/proliferation; morphology, biofilm and growth disruption (Tables 5, 6); type: cell-based, Corynebacterium jeikeium; design: key: A: Peptide aggregates; B: Less hyphal formation; Clumps; Diffuse clumps and small polyps; F: Diffuse growth; H: Thin; I: Growth inhibition; Microcolony formation; Rippled; Small polyps; Thick; W: Halo formation on top, microlonies on bottom; note: test concentration or dose not given here
M. luteus = assay: as above; type: cell-based, Micrococcus luteus; design: key: A: Peptide aggregates; B: Less hyphal formation; Clumps; Diffuse clumps and small polyps; F: Diffuse growth; H: Thin; I: Growth inhibition; Microcolony formation; Rippled; Small polyps; Thick; W: Halo formation on top, microlonies on bottom
MRSA = assay: as above; type: cell-based, Methicillin-resistant Staphylococcus aureus; design: key: A: Peptide aggregates; B: Less hyphal formation; Clumps; Diffuse clumps and small polyps; F: Diffuse growth; H: Thin; I: Growth inhibition; Microcolony formation; Rippled; Small polyps; Thick; W: Halo formation on top, microlonies on bottom
E. faecalis = assay: as above; type: cell-based, Enterococcus faecalis; design: key: A: Peptide aggregates; B: Less hyphal formation; Clumps; Diffuse clumps and small polyps; F: Diffuse growth; H: Thin; I: Growth inhibition; Microcolony formation; Rippled; Small polyps; Thick; W: Halo formation on top, microlonies on bottom
C. albicans = assay: as above; type: cell-based, Candida albicans; design: key: A: Peptide aggregates; B: Less hyphal formation; Clumps; Diffuse clumps and small polyps; F: Diffuse growth; H: Thin; I: Growth inhibition; Microcolony formation; Rippled; Small polyps; Thick; W: Halo formation on top, microlonies on bottom
[2] = microorganism(s) the targeting peptide binds, peptide binding conducted in aqueous buffers varied by peptide solubility
Throughout, for Organism, effect (morphology, biofilm and growth disruption): test concentration or dose not given here.
Throughout, for Organism, effect: test concentration or dose not given here.

## PF-061: peptide having multiple activities (chain 1 GYNSYKAVQDVKTHSEEQRVTAKK; chain 2 GYNSYKAVQDVKTHSEEQRVTAKK; Peptide with targeting and/or antimicrobial activity)
B. subtilis
  Organism, effect: B. subtilis (R)
S. epidermidis
  Organism, effect: S. epidermidis (R)
S. pneumoniae
  Organism, effect: S. pneumoniae (R)
C. jejuni
  Organism, effect: C. jejuni (R)
[1]; microorganism the targeting peptide binds, binding in aqueous buffers varied by peptide solubility
  Target(s): S. epidermidis; also recorded: S. pneumoniae
microorganisms
  Activities: G B

## PF-145: peptide having multiple activities (GIVLTGRAGLVSGACSMALGVGLG; Peptide with targeting and/or antimicrobial activity)
B. subtilis
  Organism, effect: B. subtilis (C)
C. jeikeium
  Organism, effect: C. jeikeium (R)
M. luteus
  Organism, effect: M. luteus (A)
MRSA
  Organism, effect: MRSA (M)
S. epidermidis
  Organism, effect: S. epidermidis (D)
S. pneumoniae
  Organism, effect: S. pneumoniae (R)
C. jejuni
  Organism, effect: C. jejuni (R)
microorganisms
  Activities: G B

## PF-171: peptide having multiple activities (TQVTLCRTW; Peptide with targeting and/or antimicrobial activity)
B. subtilis
  Organism, effect: B. subtilis (D)
M. luteus
  Organism, effect: M. luteus (R)
MRSA
  Organism, effect: MRSA (M)
S. epidermidis
  Organism, effect: S. epidermidis (R)
S. pneumoniae
  Organism, effect: S. pneumoniae (D)
C. jejuni
  Organism, effect: C. jejuni (R)
[1]; microorganism(s) the targeting peptide binds, binding in aqueous buffers depending on peptide solubility
  Target(s): S. epidermidis; also recorded: E. coli; also recorded: P. aeruginosa; also recorded: S. pneumoniae
microorganisms
  Activities: G B

## PF-548: peptide having multiple activities (chain 1 ARPIADLIHFNSTTVTASGDVYYGPG; chain 2 ARPIADLIHFNSTTVTASGDVYYGPG; Peptide with targeting and/or antimicrobial activity)
B. subtilis
  Organism, effect: B. subtilis (C)
C. jeikeium
  Organism, effect: C. jeikeium (R)
M. luteus
  Organism, effect: M. luteus (A)
MRSA
  Organism, effect: MRSA (M)
S. epidermidis
  Organism, effect: S. epidermidis (M)
S. pneumoniae
  Organism, effect: S. pneumoniae (D)
C. jejuni
  Organism, effect: C. jejuni (D)
microorganisms
  Activities: G B

## PF-553: peptide having multiple activities (chain 1 LTIVGNALQQKNQKLLLNQKKITSLG; chain 2 LTIVGNALQQKNQKLLLNQKKITSLG; Peptide with targeting and/or antimicrobial activity)
B. subtilis
  Organism, effect: B. subtilis (D)
C. jeikeium
  Organism, effect: C. jeikeium (R)
MRSA
  Organism, effect: MRSA (M)
S. pneumoniae
  Organism, effect: S. pneumoniae (R)
[1]; [2]
  Target(s): S. epidermidis and E. coli and P. aeruginosa and C. albicans and MRSA and S. pneumoniae and C. jeikeium
microorganisms
  Activities: G B

## PF-556: peptide having multiple activities (chain 1 SLQIRMNTLTAAKASIEAA; chain 2 SLQIRMNTLTAAKASIEAA; Peptide with targeting and/or antimicrobial activity)
B. subtilis
  Organism, effect: B. subtilis (C)
C. jeikeium
  Organism, effect: C. jeikeium (D)
E. faecalis
  Organism, effect: E. faecalis (A)
M. luteus
  Organism, effect: M. luteus (A)
MRSA
  Organism, effect: MRSA (M)
S. epidermidis
  Organism, effect: S. epidermidis (A)
S. pneumoniae
  Organism, effect: S. pneumoniae (D)
C. jejuni
  Organism, effect: C. jejuni (R)
microorganisms
  Activities: G B

## PF-558: peptide having multiple activities (chain 1 ADAPPPLIVRYS; chain 2 ADAPPPLIVRYS; Peptide with targeting and/or antimicrobial activity)
B. subtilis
  Organism, effect: B. subtilis (D)
MRSA
  Organism, effect: MRSA (C)
S. epidermidis
  Organism, effect: S. epidermidis (M)
S. pneumoniae
  Organism, effect: S. pneumoniae (R)
C. jejuni
  Organism, effect: C. jejuni (H)
[1]; [2]
  Target(s): S. epidermidis; also recorded: E. coli; also recorded: C. albicans; also recorded: C. jeikeium; also recorded: C. jejuni
microorganisms
  Activities: G B

## PF-560: peptide having multiple activities (chain 1 FGNPFRGFTLAMEADFKKRK; chain 2 FGNPFRGFTLAMEADFKKRK; Peptide with targeting and/or antimicrobial activity)
B. subtilis
  Organism, effect: B. subtilis (D)
MRSA
  Organism, effect: MRSA (C)
S. pneumoniae
  Organism, effect: S. pneumoniae (R)
C. jejuni
  Organism, effect: C. jejuni (A)
[1]; [2]
  Target(s): S. epidermidis; also recorded: M. luteus; also recorded: E. coli; also recorded: S. pneumoniae; also recorded: C. jeikeium; also recorded: C. jejuni
microorganisms
  Activities: G B

## PF-563: peptide having multiple activities (chain 1 RPELDNELDVVQNSASLDKLQASYN; chain 2 RPELDNELDVVQNSASLDKLQASYN; Peptide with targeting and/or antimicrobial activity)
B. subtilis
  Organism, effect: B. subtilis (D)
S. pneumoniae
  Organism, effect: S. pneumoniae (H)
C. jejuni
  Organism, effect: C. jejuni (H)
[1]; [2]
  Target(s): S. epidermidis; also recorded: M. luteus; also recorded: C. jeikeium
microorganisms
  Activities: G B

## PF-564: peptide having multiple activities (chain 1 TIILNDQINSLQERLNKLNAETDRR; chain 2 TIILNDQINSLQERLNKLNAETDRR; Peptide with targeting and/or antimicrobial activity)
B. subtilis
  Organism, effect: B. subtilis (D)
C. jeikeium
  Organism, effect: C. jeikeium (R)
MRSA
  Organism, effect: MRSA (C)
C. jejuni
  Organism, effect: C. jejuni (R)
[1]; [2]
  Target(s): S. epidermidis; also recorded: C. albicans; also recorded: S. pneumoniae; also recorded: C. jeikeium
microorganisms
  Activities: G B

## PF-566: peptide having multiple activities (chain 1 EAQQVTQQLGADFNAITTPTATKV; chain 2 EAQQVTQQLGADFNAITTPTATKV; Peptide with targeting and/or antimicrobial activity)
B. subtilis
  Organism, effect: B. subtilis (C)
C. jeikeium
  Organism, effect: C. jeikeium (C)
M. luteus
  Organism, effect: M. luteus (D)
MRSA
  Organism, effect: MRSA (M)
S. pneumoniae
  Organism, effect: S. pneumoniae (D)
C. jejuni
  Organism, effect: C. jejuni (D)
[1]; [2]
  Target(s): P. mirabilis; also recorded: S. pneumoniae
microorganisms
  Activities: G B

## PF-645 (chain 1 SNSVQQG; chain 2 SNSVQQG; Peptide with targeting and/or antimicrobial activity)
S. pneumoniae
  Organism, effect: S. pneumoniae (I)
C. albicans
  Organism, effect: C. albicans (B)
[1]
  Target(s) (microorganisms bound by the targeting peptide): Mycobacteria spp

## PF-646 (chain 1 APASPGRRPG; chain 2 APASPGRRPG; Peptide with targeting and/or antimicrobial activity)
S. pneumoniae
  Organism, effect (morphology, biofilm and growth disruption): S. pneumoniae (H)
C. albicans
  Organism, effect: C. albicans (B)
[1]
  Target(s) (microorganisms bound by the targeting peptide): Mycobacteria spp

## PF-647 (chain 1 GTFLGQKCAAATAS; chain 2 GTFLGQKCAAATAS; Peptide with targeting and/or antimicrobial activity)
S. pneumoniae
  Organism, effect (morphology, biofilm and growth disruption): S. pneumoniae (R)
C. albicans
  Organism, effect (morphology, biofilm and growth disruption): C. albicans (B)
[1]
  Target(s) (microorganisms bound by the targeting peptide): Mycobacteria spp

## PF-697 (chain 1 RADARAK; chain 2 RADARAK; Peptide with targeting and/or antimicrobial activity)
S. pneumoniae
  Organism, effect (morphology, biofilm and growth disruption): S. pneumoniae (H)
C. albicans
  Organism, effect (morphology, biofilm and growth disruption): C. albicans (H)
[1]
  Target(s) (microorganisms bound by the targeting peptide): Mycobacteria spp
